Marks after values point to notes of the source that are not given here.
Tests used:
Format in all cases: cell-based, human
osteonectin = assay: Western blot of osteonectin expression after exposure to ASOs; conditions: single exposure, lipofectamine, 10 μM
bone sialoprotein II = assay: Western blot of bone sialoprotein II expression after exposure to ASOs; conditions: 10 μM
[1] = test system: MDA-MB-231 breast cancer cells; assay: Clonogenicity assay (colony formation); conditions: for inhibition of colony formation (colony growth inhibition): single exposure
Description: For determining the response of MDA-MB-231 colony formation to exposure with antisense oligonucleotides and erucylphospho-NNN-trimethylpropanolamine (ErPC3) the following procedure was used. MDA-MB-231 cells were treated for various periods of time (see below), harvested and counted. Cells (5000) were then transferred into semi-solid medium containing 0.8t RPMI-methylcellulose and 30% FBS. Cells were plated onto 3.5 cm Petri-dishes (1 ml/dish) (NUNC, Wiesbaden, Germany) and usual cell culture conditions (37° C., 5% CO2 in humidified air) were applied. Colony formation (clusters of 30 or more cells) was visualized by staining with 3-[4,5-dimethylthiazol-2-yl]-2,5-diphenyltetrazolium-bromide (MTT; Serva, Heidelberg, Germany) and the resulting dark blue colonies were scored by an inverted microscope after 5-7 days. At least three dishes per treatment protocol were used.
Pending on the duration of treatment, 1×10^5-3×10^5 cells were transferred onto 6 well plates (Nunc, Wiesbaden, Germany) and grown for 24 h. For transfection, ASO stock solutions were prepared in medium without FBS. According to the protocol of the manufacturer, the respective ASO stock solution was mixed with lipofectamine to allow ASO-liposome complexes to form. To 200 μl medium containing ASO quantities resulting in 10 μM (Western blot and in vivo model) and in 5, 10, or 20 μM (clonogenicity assay) final ASO-concentrations, an equal volume of medium without FBS was added containing 5, 10, or 20 μl lipofectamine, respectively. In addition to the ASO treatment, a NSO control (20 μM final concentration with 20 μl lipofectamine) and a lipofectamine control (20 μl) were used. […] After 12 h the medium was changed, and cells were further grown for 48-72 h. In the case of a sequential combination treatment this first cycle was repeated with the respective combination partner.
The alkylphosphocholine ErPC3 was synthesized and provided by Prof. H. Eibl (MPI of Biophysical Chemistry, Göttingen, FRG). For treating MDA-MB-231 cells, ErPC3 which was kept as stock solution in ethanol and PBS (10 mM; ratio of diluents 1:1; V:V), was diluted in PBS resulting in final concentrations of 10, 14, and 20 μM. The medium containing ErPC3 was changed after 24 h in all experiments and the cells were further grown for 48-72 h without ErPC3 (for details of sequential exposure see below).
Sequential combination treatment consisted of two or three treatment cycles. The two cycle treatment started either with the ASO and was followed by ErPC3 or was performed with the reverse sequence. The three cycle treatment started either with two cycles of ASO followed by ErPC3 or an initial exposure to ErPC3 was followed by two cycles with an ASO.
Colony counts are presented as mean with corresponding standard deviation. For comparison of incidences between treatment groups the x^2 test was used and for comparison of the lesion sizes the Kruskal-Wallis test was applied. P values≦0.05 were considered significant. Predicted theoretical values of combinations were calculated according to the equation: C=a×b/100, where a and b are colony counts in percent of untreated control obtained in response to single agents. For each concentration applied theoretical values were calculated and compared with the real value of the combination. In addition, isobologram and multiple drug effect analysis was examined by a suitable program (CalcuSyn, Biosoft, Ferguson, USA) to study the nature of the interaction observed. For this purpose, the dose-effect curve for each drug alone was determined based on the experimental observations using the median-effect principle; the combination index (CI) for each combination was then calculated according to the following equation:
CI=(D)1/(Dx)1+(D)2/(Dx)2+(D1)×(D2)/(Dx)1×(Dx)2
where (D)1 and (D)2 are the doses of drug 1 and drug 2 that have x effect when used in combination and (Dx)1 and (Dx)2 are the doses of drug 1 and drug 2 that have the same x effect when used alone. […]

[2] = MDA-MB231^F (growing without FBS)
[3] = MDA-MB231, single exposure, electroporation
[4] = MDA-MB231, single exposure, lipofectamine
[5] = MDA-MB231, twofold exposure, lipofectamine
[6] = MDA-MB231^F (growing without FBS), single exposure, lipofectamine
[7] = MDA-MB435s, single exposure, lipofectamine

Molecule | osteonectin expression in relation to untreated control (100%) (osteonectin; MDA-MB231) | osteonectin expression in relation to untreated control (100%) (osteonectin; [2]) [%] | osteonectin expression in relation to untreated control (100%) (osteonectin; MDA-MB435s) [%] | bone sialoprotein II expression in relation to untreated control (100%) (bone sialoprotein II; [3]) [%] | bone sialoprotein II expression in relation to untreated control (100%) (bone sialoprotein II; [4]) [%] | bone sialoprotein II expression in relation to untreated control (100%) (bone sialoprotein II; [6]) [%] | bone sialoprotein II expression in relation to untreated control (100%) (bone sialoprotein II; [7]) [%] | further results
5′-CCATCATCAAATTCTCCTAC-3′ (antisense CCATCATCAAATTCTCCTAC; all phosphorothioate, sugars by position and methylation of C not given here) [ASO-ON-2] | 61% | 17 | 64 | – | – | – | – | –
5′-CTTCATCACTTTCCTTCTCT-3′ (antisense CTTCATCACTTTCCTTCTCT; all phosphorothioate, sugars by position and methylation of C not given here) [ASO-BSPII-5] | – | – | – | 63 | 27 | 101 | 41 | bone sialoprotein II expression in relation to untreated control (100%) (bone sialoprotein II; [5]): 46%
5′-TTGAAGTTTCTCTTGATTAA-3′ (antisense TTGAAGTTTCTCTTGATTAA; all phosphorothioate, sugars by position and methylation of C not given here) [ASO-ON-10] | 46% | 35 | 46 | – | – | – | – | –
5′-AGATCCAGGCCCTCATGGTG -3′ (antisense AGATCCAGGCCCTCATGGTG; all phosphorothioate, sugars by position and methylation of C not given here) [ASO-ON-1] | 39^3) % | 44 | 46 | – | – | – | – | –
5′-TTCCGGTCTCTGTGGTGTCT-3′ [ASO-BSPII-7] | – | – | – | 25 | 58 | 37 | 51 | bone sialoprotein II expression in relation to untreated control (100%) (bone sialoprotein II; [5]): 22%
5′-GAATCCGGTACTGTGGAAGG-3′ (antisense GAATCCGGTACTGTGGAAGG; all phosphorothioate, sugars by position and methylation of C not given here) [ASO-ON-8] | 54% | 38 | 46 | – | – | – | – | –
5′-TCACTGGTGGTGGTAGTAAT-3′ (antisense TCACTGGTGGTGGTAGTAAT; all phosphorothioate, sugars by position and methylation of C not given here) [ASO-BSPII-10] | – | – | – | 40 | 33 | 30 | 39 | –
5′-TGATTGCTTCCTCTGGCAGT-3′ (antisense TGATTGCTTCCTCTGGCAGT; all phosphorothioate, sugars by position and methylation of C not given here) [ASO-BSPII-1] | – | – | – | 78 | 45 | 58 | 16 | bone sialoprotein II expression in relation to untreated control (100%) (bone sialoprotein II; [5]): 19^2) %
5′-CAAACATTTTAAACATTGGG-3′ (antisense CAAACATTTTAAACATTGGG; all phosphorothioate, sugars by position and methylation of C not given here) [ASO-ON-9] | 37% | 21 | 49 | – | – | – | – | –
5′-ATTCTTCATTGTTTTCTCCT-3 (antisense ATTCTTCATTGTTTTCTCCT; all phosphorothioate, sugars by position and methylation of C not given here) [ASO-BSPII-4] | – | – | – | 55 | 73 | 109 | 26 | –
5′-ACTGGTGGTGGTAGTAATTC-3′ (antisense ACTGGTGGTGGTAGTAATTC; all phosphorothioate, sugars by position and methylation of C not given here) [ASO-BSPII-9] | – | – | – | 46 | 35 | 84 | 49 | –
5′-CTGCCTTCCGGTCTCTGTGG-3′ (antisense CTGCCTTCCGGTCTCTGTGG; all phosphorothioate, sugars by position and methylation of C not given here) [ASO-BSPII-8] | – | – | – | 34 | 62 | 101 | 32 | bone sialoprotein II expression in relation to untreated control (100%) (bone sialoprotein II; [5]): 25%
5′-CTTCATTGTTTTCTCCTTCA-3′ (antisense CTTCATTGTTTTCTCCTTCA; all phosphorothioate, sugars by position and methylation of C not given here) [ASO-BSPII-3] | – | – | – | 44 | 97 | 93 | 22 | –
CCCCCCCC/C=C\CCCCCCCCCCCCOP(=O)([O-])OCCC[N+](C)(C)C [ErPC3, Erucylphospho-NNN-trimethylpropanolamine, reference compound] | – | – | – | – | – | – | – | % Control ([1]; Exp. III a, 14 μM): 52%; Mean colony no. ([1]; Exp. III a, 14 μM, control 456): 239^5); % Control ([1]; Experiment I, single treatment, 10 μM): 89%; Mean colony no. ([1]; Experiment I, single treatment, 10 μM, control 778): 691^8); % Control ([1]; Experiment I, single treatment, 14 μM): 55%; Mean colony no. ([1]; Experiment I, single treatment, 14 μM, control 778): 425^7); % Control ([1]; Experiment I, single treatment, 20 μM): 22%; Mean colony no. ([1]; Experiment I, single treatment, 20 μM, control 778): 169; % Control ([1]; Experiment II, single treatment, 10 μM): 88%; Mean colony no. ([1]; Experiment II, single treatment, 10 μM, control 705): 621^8); % Control ([1]; Experiment II, single treatment, 14 μM): 55%; Mean colony no. ([1]; Experiment II, single treatment, 14 μM, control 705): 385^7); % Control ([1]; Experiment II, single treatment, 20 μM): 25%; Mean colony no. ([1]; Experiment II, single treatment, 20 μM, control 705): 173; % Control ([1]; Experiment III b, 14 μM): 59%; Mean colony no. ([1]; Experiment III b, 14 μM, control 517): 311^5); inhibition of colony formation (colony growth inhibition) ([1]; 10 μM): 11%; inhibition of colony formation (colony growth inhibition) ([1]; 14 μM): 45%; inhibition of colony formation (colony growth inhibition) ([1]; 20 μM): 78%
5′-ATTTTGGTGATTGCTTCCTC-3′ (antisense ATTTTGGTGATTGCTTCCTC; all phosphorothioate, sugars by position and methylation of C not given here) [ASO-BSPII-2] | – | – | – | 94 | 38 | 94 | 26 | –
